Series [1] can be described thus: Cell viability assay (WST-8), MDA-MB-231. Format: cell-based, human. The following applies: human, MDA-MB-231 cells, replicates, read-out: cell viability relative to control. The gist of the method:
(§1)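 Cells (2000–3000 per well) were treated with serial dilutions of DCN1 inhibitors for 3 days, then incubated 1–3 h with WST-8 and absorbance read at 450 nm. Growth inhibition was sample-to-control absorbance ratio, with EC50 from fitted curves.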
On the technique in general: Tetrazolium dyes change colour on reduction, which living cells bring about.

The test system of another series is MDA-MB-231 cells. Description: Cell viability assay (WST-8), MDA-MB-231. The format is cell-based, human. The following applies: for cell viability relative to control: replicates. The gist of the method: as §1
In series [2] the target is T1, cellular DCN3 protein in U2OS cells (Homo sapiens, UniProt Q8IWE4).
T1 construct: endogenous in cells; host or cells: U2OS
Description: Cellular thermal shift assay (CETSA), DCN3. The format is cell-based. The following applies: concentrations up to 1000 nM. On the procedure: (§2) CETSA was performed as previously described. The U2OS cells (5 × 10^5 per sample) were treated with compounds or with DMSO for 1 h, washed with PBS for three times, and dissolved in 50 µL PBS supplemented with protease inhibitor, followed by heating at 53 °C in a Mastercycler gradient (Eppendorf, New York, USA). Treated cells were then subjected to snap-freezing in liquid nitrogen and thawed on ice for three cycles. The protein level of DCN1 and DCN3 in equal amount of the supernatant was examined by western blot methods. GAPDH was used as a control. Results are representative of three independent experiments.

Series [3] has as its target T2, cellular DCN1 protein in U2OS cells (Homo sapiens, UniProt Q96GG9).
T2 construct: endogenous in cells; host or cells: U2OS
Description: Cellular thermal shift assay (CETSA), DCN1. The format is cell-based. The following applies: 1 h, 53 °C. On the procedure:
as §2

Another series concerns the target DCN1 (Homo sapiens, UniProt Q96GG9). Nature of the series: BLI assay. The arrangement: biotin (chemical labelling, EZ-Link long-chain reagent). Format: binding. On the procedure:
BLI experiments were performed using an OctetRED96 instrument from PALL/ForteBio, as previously described. All assays were run at 30 °C using PBS (pH 7.4) as the assay buffer, in which 0.1% BSA, 0.01% Tween-20, and 2% DMSO were added. DCN1 protein was biotinylated using the Thermo EZ-Link long-chain biotinylation reagent. Biotinylated DCN1 protein was tethered on super streptavidin biosensors (ForteBio) by dipping sensors into 10 µg/mL protein solutions. To eliminate loose nonspecific bound protein and establish a stable base line, sensors with proteins were moved and dipped into wells with pure assay buffer and equilibrated in the buffer for 10 min. Association–dissociation cycles were performed by moving and dipping sensors into compound solution wells then into pure buffer wells. DMSO-only reference was included in all assays.

A further series relates to HCT116 cells. Nature of the series: Cell viability assay (WST-8), HCT116. Format: cell-based, human. The following applies: Homo sapiens, HCT-116; 72 h; cell line assigned from panel order; read-out: EC50, cell growth inhibition. The gist of the method: as §1
The subject of series [4] is APAP-induced liver injury. Nature of the series: APAP-induced liver injury: H&E histology of liver. The format is in vivo, mouse. On the procedure:
The in vivo studies were performed under animal protocols (PRO00007499) and (PRO00006638) approved by the Institutional Animal Care & Use Committee of the University of Michigan, in accordance with the recommendations in the Guide for the Care and Use of Laboratory Animals of the National Institutes of Health. C57BL/6 WT mice (~8 weeks, male, normal chow) were purchased from the Jackson Laboratory and randomly divided into eight groups (8–9 mice per group) treated (IP) as follows: phosphate-buffered saline vehicle once per day for 3 days (G1), APAP alone a single dose at 400 mg/kg on day 1 (G2), DI-1859 alone 25 mg/kg once per day for 3 days (G3), DI-1859 alone 50 mg/kg once per day for 3 days (G4), pretreatment (1 day before the APAP administration) with DI-1859 at 25 mg/kg once per day for 3 days followed with APAP at 400 mg/kg on day (G5), pretreatment (1 day before the APAP administration) with DI-1859 at 50 mg/kg once per day for 3 days followed with APAP at 400 mg/kg on day (G6), APAP a single dose at 400 mg/kg (3 h before the first DI-1859 administration) followed with DI-1859 at 25 mg/Kg once per day for 3 days (G7), and APAP a single dose at 400 mg/kg (3 h before the first DI-1859 administration) followed with DI-1859 at 50 mg/Kg once per day for 3 days (G8).
To induce acute liver injury, animals received PBS or APAP (400 mg/kg, sigma, A7085) through I.P. injection at 12 p.m. and were sacrificed 48 h afterward. To examine the protective effect of DI-1859 (groups 5 and 6), animals were I.P. injected with compound for 3 consecutive days (9 a.m. on each day, starting 1 day before APAP administration). To examine the restorative effect of DI-1859 (groups 7 and 8), animals were I.P. injected with compound 3 h after APAP administration followed by two additional treatments (9 a.m. on the next 2 days). Body weight and blood glucose level measurement, along with blood sample collection, were performed at 12 p.m. on each day.
Liver paraffin sections were stained with H&E.

“And” between values parts separate entries of the source, which are not always exact repeats. Equal values may be shown once. Read-outs that look alike come from different tables or passages of the source.

T2 sequence (Q96GG9 whole entry): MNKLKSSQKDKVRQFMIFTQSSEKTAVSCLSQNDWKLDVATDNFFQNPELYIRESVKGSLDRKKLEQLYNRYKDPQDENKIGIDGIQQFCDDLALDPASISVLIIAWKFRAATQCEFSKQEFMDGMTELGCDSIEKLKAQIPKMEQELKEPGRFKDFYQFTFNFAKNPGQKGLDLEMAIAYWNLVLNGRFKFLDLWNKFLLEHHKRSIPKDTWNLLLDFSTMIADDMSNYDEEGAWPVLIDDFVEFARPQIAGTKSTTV
Chain of DCN1 (Q96GG9 whole entry): as above
T1 sequence (Q8IWE4 whole entry): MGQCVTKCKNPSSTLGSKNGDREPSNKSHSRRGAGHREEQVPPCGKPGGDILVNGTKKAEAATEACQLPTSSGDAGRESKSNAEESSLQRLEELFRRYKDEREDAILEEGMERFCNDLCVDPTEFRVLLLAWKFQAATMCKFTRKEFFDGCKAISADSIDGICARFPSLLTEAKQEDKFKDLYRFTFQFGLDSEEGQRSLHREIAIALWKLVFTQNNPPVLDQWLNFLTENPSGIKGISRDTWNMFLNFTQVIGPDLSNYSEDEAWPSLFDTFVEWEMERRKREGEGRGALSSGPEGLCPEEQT

`C=C(CN1CCOCC1)C(=O)NC[C@@H](NC(=O)[C@H](Cc1nc2ccc(C(C)C)cc2s1)NC(=O)CC)C1CCCCC1` [DI-1548]: the viability (in general, a read-out of living cells in per cent, often relative to untreated cells) at 72 h stood at 105% in series [1] (conc 30, 72 h) and 97.2% in series [1] (conc 100, 72 h). Besides, the EC50 (in general, the concentration that produces a half-maximal response) with MDA-MB-231 cells (Homo sapiens, MDA-MB-231, 72 h, cell line assigned from panel order, read-out: EC50, cell growth inhibition) was above 1 µM; in the series on HCT116 cells, above 1 µM. The “cell viability relative to control” value is 103.908 and 110.805 and 88.1609 with MDA-MB-231 cells (conc 10, 72 h); 104.754 and 102.705 in the series on MDA-MB-231 cells (conc 30, 72 h); 102.874 and 99.4253 with MDA-MB-231 cells (conc 100, 72 h); 87.0115 and 106.207 and 84.7126 in the series on MDA-MB-231 cells (conc 300, 72 h); 77.0115 and 107.241 and 112.414 in the series on MDA-MB-231 cells (conc 1000, 72 h). In series [2], the “effect on the thermal stability of cellular DCN3 protein” value was “no discernible effect”. For the same molecule, the “concentration as low as which the thermal stability of cellular DCN1 protein is enhanced” value in series [3] was at most 0.3 nM. Also, in series [3], the “times more potent than DI-591 and DI-1548DD in enhancing the thermal stability of cellular DCN1 protein” value is recorded as above 1000 times. In addition, the “dissociation phase of the complex with DCN1” value on DCN1 is “no dissociation phase”. Also, the “concentration at which the BLI signal reaches near its maximum” value on DCN1 (1.56 to 100 nM tested) is 25 nM.
For `C=C(CN(C)C)C(=O)NC[C@@H](NC(=O)[C@H](Cc1nc2ccc(C(C)C)cc2s1)NC(=O)CC)C1CCCCC1` [DI-1859], in series [4] (25 and 50 mg/kg qD for 3 days (G3, G4), ALT and histology), the “liver tissue damage by the compound alone” value is “caused no liver tissue damage”. The “effect on APAP-induced liver tissue damage (histology)” value in series [4] (prevention setting, 25 mg/kg) is “largely abolished tissue distortion and greatly reduced acetaminophen-induced tissue damage”; in series [4] (prevention setting, 50 mg/kg), “near completely prevented APAP-induced liver tissue damage”; in series [4] (treatment setting, 25 and 50 mg/kg), “significantly reduced the liver damage induced by APAP”.
